From US10934303B2, “Aryl ethene derivative and pharmaceutical composition containing same as active ingredient” (priority 2016, dated 2021)
Read-outs that look alike come from different tables or passages of the source.

Tests used:
[1] = target: GST-bound ERR gamma ligand-binding domain (LBD) (Homo sapiens (Human), UniProt P62508); test: ERRγ binding assay (inverse agonist assay), TR-FRET
Experimental: 1) ERRγ Binding Assay (Inverse Agonist Assay)
(§2) The arylethene derivative of the present invention was sequentially added to a 384 well plate from a concentration of 10 μM to a final concentration of two-fold dilution. […] After all reagents were added, a reaction was carried out with gentle shaking at 20° C. for 1 hour, and after the reaction, a binding activity was measured by a TR-FRET method.

GST-bound ERR alpha LBD = GST-bound ERR alpha LBD (Homo sapiens (Human), UniProt P11474); settings: TR-FRET, PGC1a coactivator; read-out: Binding Assay, IC50 ERRα
GST-bound ERR alpha LBD, sequence (P11474 193-421): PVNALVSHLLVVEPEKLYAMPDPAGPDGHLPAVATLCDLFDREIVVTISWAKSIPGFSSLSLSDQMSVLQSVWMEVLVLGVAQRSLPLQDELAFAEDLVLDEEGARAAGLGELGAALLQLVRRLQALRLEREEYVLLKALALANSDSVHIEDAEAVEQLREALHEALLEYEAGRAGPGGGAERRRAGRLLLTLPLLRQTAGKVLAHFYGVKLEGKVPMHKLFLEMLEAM
Experimental: as §2

ERRγ = type: cell-based
Experimental: AD293 was cultured in a 24-well plate for 24 hours, using a DMEM High glucose culture medium (Hyclone, USA) to which 0.5% FBS was added at a concentration of 9×10^4/well. The culture medium was replaced with a DMEM High glucose culture medium to which 10% FBS was added, treatment was performed with a mixture of a TransIT-LT1 transfection reagent (Mirus, USA) and pCMX-Gal4-ERRγ, pFR-luciferase reporter plasmid, pCMV-β-gal, and culturing was performed for 24 hours. Thereafter, a luciferase activity assay and a β-gal assay were performed, respectively, with a lysate obtained after treatment with the arylethene derivative of the present invention for 24 hours. All results were derived from three or more independent repetitive experiments.

[2] = target: GST-bound ER alpha ligand-binding domain (LBD) (Homo sapiens (Human), UniProt P03372); test: biochemical
GST-bound ER alpha ligand-binding domain (LBD), sequence (P03372 whole entry, looked up, the tested form may be a part): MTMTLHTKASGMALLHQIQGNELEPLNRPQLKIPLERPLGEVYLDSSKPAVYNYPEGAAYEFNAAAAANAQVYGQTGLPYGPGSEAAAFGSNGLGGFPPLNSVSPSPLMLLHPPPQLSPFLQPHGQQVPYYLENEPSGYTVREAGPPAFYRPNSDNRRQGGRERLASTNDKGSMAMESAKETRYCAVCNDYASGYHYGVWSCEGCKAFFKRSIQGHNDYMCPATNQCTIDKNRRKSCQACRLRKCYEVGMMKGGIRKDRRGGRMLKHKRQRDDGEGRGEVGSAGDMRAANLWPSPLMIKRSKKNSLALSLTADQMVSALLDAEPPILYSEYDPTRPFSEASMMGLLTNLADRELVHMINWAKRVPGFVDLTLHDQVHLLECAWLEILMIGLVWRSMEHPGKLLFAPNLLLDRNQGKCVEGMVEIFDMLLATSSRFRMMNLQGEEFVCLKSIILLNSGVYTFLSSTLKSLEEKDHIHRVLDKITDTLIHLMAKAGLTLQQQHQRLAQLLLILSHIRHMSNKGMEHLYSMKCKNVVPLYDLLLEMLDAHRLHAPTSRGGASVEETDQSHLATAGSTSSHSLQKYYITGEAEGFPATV
Experimental: as §2

hERG channel = hERG channel (Homo sapiens (Human), UniProt Q12809); settings: read-out: hERG IC50; fluorescence polarization assay
[3] = 1 μM, 30 minutes, 37° C., NADPH
in vitro = in vitro ADME; design: Papp at 5 h: dose or concentration left out as unconfirmed; settings: PBS pH 7.4, 25° C.; for Permeability Pampa: 5 hours
Experimental: 3) Parallel Artificial Membrane Permeability Assay (PAMPA) Evaluation
PAMPA is a method which has been developed for testing cell membrane permeability of a material in a test tube, and has been performed using a lipid tri-layer PVDF membrane available from Corning Gentest (NY, US), the used reagents were all purchased from Sigma (MO, US). First, a test material is diluted in PBS (pH 7.4) to a final concentration of 10 mM, 300 mL of the solution is added to the bottom well of a 96-transwell equipped with a PVDF membrane, and 200 mL of PBS is added to the upper well. Then, a plate is reacted at 25° C. for 5 hours, 20 mL of the solution in each well is transferred to a new container, and 80 mL of acetonitrile containing an internal standard material (4 mM chloropropamide) is added thereto. A concentration of the material in the solution is analyzed using LC-MS/MS (ThermoFisher Scientific, MO, US), and the transmittance of the material is calculated according to the equation reported in the reference document.

CYP2D6 = CYP2D6 (Homo sapiens (Human), UniProt P10635); test: Cytochrome P450 activity inhibition, CYP2D6; type: in vitro ADME; settings: 10 μM, human liver microsomes, Dextromethorphan substrate
CYP2D6, sequence (P10635 whole entry): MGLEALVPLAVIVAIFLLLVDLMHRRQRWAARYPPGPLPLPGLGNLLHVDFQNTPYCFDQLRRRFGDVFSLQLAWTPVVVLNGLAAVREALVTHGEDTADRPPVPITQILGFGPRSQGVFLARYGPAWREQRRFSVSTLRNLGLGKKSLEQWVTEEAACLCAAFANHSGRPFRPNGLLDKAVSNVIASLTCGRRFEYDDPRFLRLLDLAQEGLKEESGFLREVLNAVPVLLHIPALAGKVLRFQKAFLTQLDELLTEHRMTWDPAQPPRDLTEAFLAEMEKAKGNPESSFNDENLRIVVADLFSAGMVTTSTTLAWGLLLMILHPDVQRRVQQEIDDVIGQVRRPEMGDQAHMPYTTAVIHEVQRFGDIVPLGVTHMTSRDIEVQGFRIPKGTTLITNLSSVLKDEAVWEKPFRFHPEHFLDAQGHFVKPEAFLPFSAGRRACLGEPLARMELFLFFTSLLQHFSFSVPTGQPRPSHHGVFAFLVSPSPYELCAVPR
From the text: (§1) 1) Cytochrome P450 (CYP450) Activity Inhibition Evaluation

CYP2C9 = CYP2C9 (Homo sapiens (Human), UniProt P11712); test: Cytochrome P450 activity inhibition, CYP2C9; type: in vitro ADME; settings: 10 μM, human liver microsomes, Diclofenac substrate
CYP2C9, sequence (P11712 whole entry): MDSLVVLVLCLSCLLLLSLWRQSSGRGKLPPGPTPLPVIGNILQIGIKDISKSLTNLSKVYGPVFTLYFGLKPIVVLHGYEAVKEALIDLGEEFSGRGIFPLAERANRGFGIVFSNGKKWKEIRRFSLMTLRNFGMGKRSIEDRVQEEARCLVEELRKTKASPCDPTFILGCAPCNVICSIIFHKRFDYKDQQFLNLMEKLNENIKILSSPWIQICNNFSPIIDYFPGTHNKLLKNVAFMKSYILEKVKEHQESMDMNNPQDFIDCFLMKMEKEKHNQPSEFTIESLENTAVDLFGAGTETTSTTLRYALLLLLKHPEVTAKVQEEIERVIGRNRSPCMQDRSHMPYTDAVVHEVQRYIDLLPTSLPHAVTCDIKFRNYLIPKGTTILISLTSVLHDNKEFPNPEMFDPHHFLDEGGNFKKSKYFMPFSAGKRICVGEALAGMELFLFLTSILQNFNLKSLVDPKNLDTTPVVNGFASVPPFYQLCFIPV
From the text: as §1

CYP1A2 = CYP1A2 (Homo sapiens (Human), UniProt P05177); test: Cytochrome P450 activity inhibition, CYP1A2; type: in vitro ADME; settings: 10 μM, human liver microsomes, Phenacetin substrate
CYP1A2, sequence (P05177 whole entry): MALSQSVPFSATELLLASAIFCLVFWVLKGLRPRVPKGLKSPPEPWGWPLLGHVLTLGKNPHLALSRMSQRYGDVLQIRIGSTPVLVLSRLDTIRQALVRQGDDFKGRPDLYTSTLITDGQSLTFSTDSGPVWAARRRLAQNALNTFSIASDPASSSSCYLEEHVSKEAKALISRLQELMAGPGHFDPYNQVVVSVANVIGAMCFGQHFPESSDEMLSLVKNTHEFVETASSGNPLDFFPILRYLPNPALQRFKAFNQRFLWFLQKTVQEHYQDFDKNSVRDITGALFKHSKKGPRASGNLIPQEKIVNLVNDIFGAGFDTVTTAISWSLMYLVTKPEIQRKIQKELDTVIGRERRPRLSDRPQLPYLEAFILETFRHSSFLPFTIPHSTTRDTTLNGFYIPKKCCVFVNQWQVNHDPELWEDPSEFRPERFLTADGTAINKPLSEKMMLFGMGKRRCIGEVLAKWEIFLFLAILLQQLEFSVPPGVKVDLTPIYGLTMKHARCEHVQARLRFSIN
From the text: as §1

CYP3A4 = CYP3A4 (Homo sapiens (Human), UniProt P08684); test: Cytochrome P450 activity inhibition, CYP3A4; type: in vitro ADME; settings: 10 μM, human liver microsomes, Midazolam substrate
CYP3A4, sequence (P08684 whole entry): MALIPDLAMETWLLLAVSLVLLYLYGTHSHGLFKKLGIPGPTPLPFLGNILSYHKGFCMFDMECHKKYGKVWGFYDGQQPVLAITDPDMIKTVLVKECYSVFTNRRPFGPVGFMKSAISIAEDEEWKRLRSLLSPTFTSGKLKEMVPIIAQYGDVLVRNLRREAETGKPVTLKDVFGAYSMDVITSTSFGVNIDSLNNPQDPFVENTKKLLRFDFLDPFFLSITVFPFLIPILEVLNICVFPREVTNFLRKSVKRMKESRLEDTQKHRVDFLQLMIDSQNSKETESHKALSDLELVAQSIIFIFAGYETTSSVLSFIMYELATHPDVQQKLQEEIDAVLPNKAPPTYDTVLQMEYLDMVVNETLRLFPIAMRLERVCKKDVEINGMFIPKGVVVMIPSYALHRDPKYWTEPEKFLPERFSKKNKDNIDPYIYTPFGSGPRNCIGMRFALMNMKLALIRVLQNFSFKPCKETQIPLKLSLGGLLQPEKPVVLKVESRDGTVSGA
From the text: as §1

[4] = 1 μM, 30 minutes, 37° C., NADPH; remark: listed apart in the source
Experimental: 2) Microsomal Stability Evaluation
(§3) Four liver microsomes (Human, Dog, Rat, Mouse 0.5 mg/ml) with a 0.1 M phosphate buffer solution (pH 7.4), and the arylethene derivative of the present invention were added to a concentration of 1 μM, culturing was performed at 37° C. for 5 minutes in advance, a NADPH regeneration system solution was added thereto, and culturing was performed at 37° C. for 30 minutes. Thereafter, in order to complete the reaction, an acetonitrile solution containing an internal standard material (chlorpropamide) was added thereto, centrifugation (14,000 rpm, 4° C.) was performed for 5 minutes, and a supernatant was injected into a LC-MS/MS system to analyze the substrate drug, thereby evaluating metabolism stability to the arylethene derivative of the present invention.

CYP2C19 = CYP2C19 (Homo sapiens (Human), UniProt P33261); test: Cytochrome P450 activity inhibition, CYP2C19; type: in vitro ADME; settings: 10 μM, human liver microsomes, S-mephenytoin substrate
CYP2C19, sequence (P33261 whole entry): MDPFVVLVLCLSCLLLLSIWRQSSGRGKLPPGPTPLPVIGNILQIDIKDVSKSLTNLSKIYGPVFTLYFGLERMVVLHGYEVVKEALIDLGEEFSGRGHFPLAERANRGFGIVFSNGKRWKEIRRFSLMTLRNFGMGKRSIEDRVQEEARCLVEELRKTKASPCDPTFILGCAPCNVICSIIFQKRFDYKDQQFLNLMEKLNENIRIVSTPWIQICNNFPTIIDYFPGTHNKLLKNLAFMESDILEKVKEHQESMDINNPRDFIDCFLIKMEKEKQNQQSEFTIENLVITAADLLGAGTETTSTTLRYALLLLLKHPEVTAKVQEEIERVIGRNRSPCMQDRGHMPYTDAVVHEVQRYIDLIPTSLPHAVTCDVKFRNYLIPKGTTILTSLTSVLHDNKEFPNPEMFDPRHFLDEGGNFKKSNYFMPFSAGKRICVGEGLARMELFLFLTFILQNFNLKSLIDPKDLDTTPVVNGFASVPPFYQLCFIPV
From the text: as §1

[5] = 1 μM, 30 minutes, 37° C., NADPH; remark: listed apart in the source
Experimental: 2) Microsomal Stability Evaluation
as §3

[6] = 1 μM, 30 minutes, 37° C., NADPH; remark: listed apart in the source
Experimental: 2) Microsomal Stability Evaluation
as §3

in vivo = type: in vivo; settings: rat; for Cmax: read-out: Cmax
Experimental: An oral administration group fasts the day before.
Blood of each animal is collected at 0 hour.
Into a tail vein of an intravenous administration group (IV), a drug is injected at a dose of 1 mg/kg (syringe).
To an oral administration group (PO), a drug is orally administered at a dose of 10 mg/kg (oral zondec)
After administration, blood of the intravenous administration group was collected through a jugular vein 8 times at 0.08, 0.25, 0.5, 1, 2, 4, 6, and 8 hours. One collected blood amount is 400 to 500 ul.
After administration, blood of the oral administration group was collected through a jugular vein 6 times at 0.25, 0.5, 1, 4, 6 and 8 hours. One collected blood amount is 400 to 500 ul.
Supernatant plasma is collected by a centrifuge.
The supernatant plasma was injected into a LC-MS/MS system and the drug is analyzed.

[7] = TR-FRET, PGC1a coactivator, read-out: Binding Assay, IC50 ERRγ
[8] = TR-FRET, beta-estradiol 4 nM as agonist, read-out: Binding Assay, IC50 ERα
[9] = activity relative to reference compound GSK5182, 10 μM

GST-bound ERR gamma ligand-binding domain (LBD), sequence (P62508 233-457): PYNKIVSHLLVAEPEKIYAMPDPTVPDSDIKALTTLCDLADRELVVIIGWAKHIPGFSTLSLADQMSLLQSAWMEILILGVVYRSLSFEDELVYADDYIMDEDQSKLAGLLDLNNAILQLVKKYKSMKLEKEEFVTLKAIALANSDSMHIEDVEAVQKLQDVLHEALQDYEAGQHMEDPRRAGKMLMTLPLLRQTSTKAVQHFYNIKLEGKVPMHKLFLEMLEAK

Structure (SMILES) | IC50 [1, 7] [nM] | IC50 (GST-bound ERR alpha LBD) [µM] | Functional Assay at 10 μM (% of control), Cpds (ERRγ; 10 μM, 24 hours, AD293) | IC50 [2, 8] [nM] | IC50 (hERG channel) [µM] | MS(Microsomal Stability) (%) human [3] [%] | Permeability Pampa (in vitro) | CYP inhibition (% of control) 2D6 (CYP2D6) | CYP inhibition (% of control) 2C9 (CYP2C9) | Functional Assay, Cpds/Ref 5182 (ERRγ; [9]) | CYP inhibition (% of control) 1A2 (CYP1A2) | CYP inhibition (% of control) 3A4 (CYP3A4) | MS(Microsomal Stability) (%) rat [4] [%] | CYP inhibition (% of control) 2C19 (CYP2C19) | MS(Microsomal Stability) (%) mouse [5] [%] | MS(Microsomal Stability) (%) dog [6] [%] | other results
OCCC/C(=C(\c1ccc(O)cc1)c1ccc(OCCN2CCCC2)cc1)c1ccccc1 [Compound 6e] | 67 | > 10 | 5.61 % of control | 408 |  |  |  |  |  |  |  |  |  |  |  |  | Functional Assay, Cpds/Ref 5182 (ERRγ): 1.82
CN1CCC[C@H]1COc1ccc(/C(=C(/CCCO)c2ccccc2)c2ccc(O)cc2)cc1 [Compound 6h] |  |  |  |  | 18 |  |  |  |  |  |  |  |  |  |  |  | Functional Assay at 10 μM (% of control), Cpds (ERRγ): 5.49 % of control; Functional Assay, Cpds/Ref 5182 (ERRγ): 1.78; IC50 [2]: 1100 nM
CN1CCN(c2ccc(/C(=C(/CCCO)c3ccccc3)c3ccc([N+](=O)[O-])cc3)cc2)CC1 [Compound 18c] |  |  | 1.31 % of control |  | 11.6 | 96.9 | 5.73 10^−6 cm/s | 75.6 % of control | 81.7 % of control | 0.42 | 92.2 % of control | 64.1 % of control | 72.8 | 80 % of control |  |  | 
CC(C)N1CCN(c2ccc(/C(=C(/CCCO)c3ccccc3)c3ccc([N+](=O)[O-])cc3)cc2)CC1 [Compound 18g] |  |  | 1.62 % of control |  | 17.9 | 87.9 | 4.8 10^−6 cm/s |  |  | 0.84 |  |  | 85.3 |  | 84.1 | 84.9 | 
CC(C)N1CCN(c2ccc(/C(=C(/CCCO)c3ccccc3)c3ccc(Br)cc3)cc2)CC1 [Compound 18h] | 32 | > 10 | 4.47 % of control | > 10000 |  | >100 | 0.37 10^−6 cm/s | 71.5 % of control | 96.9 % of control | 1.09 | 93.5 % of control | 64.5 % of control | 74.2 | 86.3 % of control | 48.5 | 64.4 | 
CCN1CCN(c2ccc(/C(=C(/CCCO)c3ccccc3)c3ccc(C)cc3)cc2)CC1 [Compound 18j] | 25 | > 10 | 3.28 % of control | > 10000 |  | 67.9 | 1.61 10^−6 cm/s | 86.6 % of control | 87 % of control | 1.21 | >100 % of control | 77.6 % of control | 62.8 | 74 % of control | 54.9 | 58.0 | AUCINF (in vivo; IV, 1 mg/kg): 0.60 μMh; AUCall (in vivo; IV, 1 mg/kg): 0.55 μMh; Cl(observed)/F (in vivo; IV, 1 mg/kg): 59 mL/min/kg; Vss (in vivo; IV, 1 mg/kg): 9.8 L/kg; t1/2 (in vivo; IV, 1 mg/kg): 3.2 h; AUCINF (in vivo; PO, 10 mg/kg): 1.61 μMh; AUCall (in vivo; PO, 10 mg/kg): 1.07 μMh; BA (in vivo; PO, 10 mg/kg): 19.6%; Tmax (in vivo; PO, 10 mg/kg): 3 h; Cmax (in vivo; PO, 10 mg/kg): 210 nM
Cc1ccc(/C(=C(\CCCO)c2ccccc2)c2ccc(C3CNC3)cc2)cc1 [Compound 20d] |  |  |  |  | 15 | 83 | 0.23 10^−6 cm/s |  |  |  |  |  | 54 |  | 11.3 |  | 
OCCC/C(=C(\c1ccc(O)cc1)c1ccc(C2CN(C3CC3)C2)cc1)c1ccccc1 [Compound 22d] |  |  |  |  | 6 | 57.6 | 0.38 10^−6 cm/s | 82.5 % of control | >100 % of control |  | >100 % of control | 66.1 % of control | 60.2 | >100 % of control |  |  | 
OCCC/C(=C(\c1ccc(O)cc1)c1ccc(C2=CCN(C3CC3)CC2)cc1)c1ccccc1 [Compound 22j] |  |  |  |  | 8.8 | 65.2 |  | 97.1 % of control | 88 % of control |  | 95.7 % of control | 85 % of control | 65.5 | 89.6 % of control | 34.9 | 54.9 | 
OCCC/C(=C(\c1ccc(O)cc1)c1ccc(N2CCN(C3CCCC3)CC2)cc1)c1ccccc1 [Compound 22n] |  |  | 3.47 % of control |  | 14.6 | 56.3 |  | 82.6 % of control | 97.4 % of control | 1.28 | 99 % of control | 88.3 % of control | 47.8 | 83 % of control | 37.8 | 72.0 | 
OCCC/C(=C(\c1ccc(O)cc1)c1ccc(N2CCN(C3CCCCC3)CC2)cc1)c1ccccc1 [Compound 22p] | 99 | 9.7 |  | 2120 |  | 72.3 | 0.2 10^−6 cm/s | 79.6 % of control | 81.8 % of control |  | 88.1 % of control | 90.6 % of control | 75.3 | 61.5 % of control | 40.4 | 77.7 | 
OCCC/C(=C(\c1ccc(O)cc1)c1ccc(N2CCN(C3CCC3)CC2)cc1)c1ccccc1 [Compound 22q] | 53 | > 10 |  | 1660 |  | 63.7 | 0.77 10^−6 cm/s | 77.6 % of control | 77.7 % of control |  | 99.9 % of control | 81 % of control | 67.6 | 92.8 % of control | 17.6 | 43.8 | 
OCCC/C(=C(/c1ccc(C2CCN(C3CC3)CC2)cc1)c1cccc(O)c1)c1ccccc1 [Compound 22r] |  |  |  |  | 16.4 | 62.0 |  | 91.8 % of control | >100 % of control |  | >100 % of control | 82.7 % of control | 49.9 | >100 % of control | 24.5 | 56.9 | AUCINF (in vivo; IV, 1 mg/kg): 0.87 μMh; AUCall (in vivo; IV, 1 mg/kg): 0.85 μMh; Vss (in vivo; IV, 1 mg/kg): 4.6 L/kg; t1/2 (in vivo; IV, 1 mg/kg): 1.8 h; AUCINF (in vivo; PO, 10 mg/kg): 5.29 μMh; AUCall (in vivo; PO, 10 mg/kg): 4.93 μMh; BA (in vivo; PO, 10 mg/kg): 58.2%; Tmax (in vivo; PO, 10 mg/kg): 1 h; t1/2 (in vivo; PO, 10 mg/kg): 2.3 h; Cmax (in vivo; PO, 10 mg/kg): 1510 nM
CC(C)N1CCN(c2ccc(/C(=C(/CCCO)c3ccccc3)c3ccc(NS(C)(=O)=O)cc3)cc2)CC1 [Compound 27a, (E)-N-(4-(5-hydroxy-1-(4-(4-isopropylpiperazin-1-yl)phenyl)-2-phenylpent-1-en-1-yl)phenyl)methanesulfonamide] |  |  |  |  |  | 66.2 |  |  |  |  |  |  | 65.0 |  | 32.7 | 50.3 | IC50 [1]: 26 nM; Papp at 5 h (in vitro; PAMPA, read-out: Permeability Pampa): 2.22 ×10⁻⁶ cm/s; Functional Assay at 10 μM (% of control), Cpds (ERRγ): 2.1 % of control; Functional Assay, Cpds/Ref 5182 (ERRγ): 0.77
